# Results published in US6777422B2, “Substituted tetrahydroisoquinolines as C5a receptor modulators” (Neurogen Corp., priority 2002, dated 2004).
# Biological target: T1, human C5a receptor (Homo sapiens, UniProt P21730)
# T1 construct: endogenous in cells; host or cells: U937 cells differentiated with 1 mM dibutyryl cAMP
# T1 sequence (P21730 1-350): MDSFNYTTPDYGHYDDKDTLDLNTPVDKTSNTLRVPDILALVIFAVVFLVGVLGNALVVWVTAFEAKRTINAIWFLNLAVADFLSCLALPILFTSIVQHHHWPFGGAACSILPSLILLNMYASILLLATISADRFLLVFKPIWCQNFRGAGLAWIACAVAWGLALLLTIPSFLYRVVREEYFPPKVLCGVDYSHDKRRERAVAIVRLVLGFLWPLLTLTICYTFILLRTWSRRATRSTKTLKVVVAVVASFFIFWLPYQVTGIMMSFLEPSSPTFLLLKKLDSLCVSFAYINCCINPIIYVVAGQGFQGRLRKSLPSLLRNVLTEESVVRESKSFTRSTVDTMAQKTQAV
# Experiment: C5a receptor mediated calcium mobilization assay (Example 20)
# Type: cell-based
# Settings: differentiated U937 cells, read-out: Ca2+ (Ki in the standard assay of C5a receptor mediated calcium mobilization)
# How it was run: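 Differentiated U937 cells (dibutyryl cAMP, 48 h) loaded with Fluo-3 were pre-incubated 1 h with compound at 1 μM, then challenged with 0.3 nM (final) human recombinant C5a. Calcium response monitored by FLIPR fluorescence (Ex 480/Em 530 nm); antagonism defined as ≥2-fold decrease versus C5a alone.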
row,Structure (SMILES),Ki [nM]
1,"Cc1ccc(Cl)c([C@@H]2c3ccccc3CCN2CC(=O)N(Cc2ccccc2F)C2Cc3ccccc3C2)c1 (stereo in doubt) [Compound 52, 2-[1-(2-chloro-5-methylphenyl)-3,4-dihydroisoquinolin-2(1H)-yl]-N-(indan-2-yl)-N-(2-fluorobenzyl)acetamide]",< 1000
2,"Cc1ccccc1[C@H]1c2ccccc2CCN1[C@@H](C)C(=O)N(Cc1ccccc1F)C1Cc2ccccc2C1 (stereo in doubt) [Compound 39, (2S)-N-(indan-2-yl)-N-(2-fluorobenzyl)-2-[(1S)-1-(2-methylphenyl)-3,4-dihydroisoquinolin-2(1H)-yl]propanamide]",< 1000
3,"O=C(CN1CCc2ccccc2C1c1cccc2ccccc12)N(Cc1ccccc1F)C1Cc2ccccc2C1 (stereo not drawn) [Compound 44, N-(indan-2-yl)-N-(2-fluorobenzyl)-2-[1-(1-naphthyl)-3,4-dihydroisoquinolin-2(1H)-yl]acetamide]",< 1000
4,"Cc1ccc(C)c([C@H]2c3ccccc3CCN2[C@@H](C)C(=O)N(Cc2ccccc2F)C2Cc3ccccc3C2)c1 [Compound 85, (2S)-N-(indan-2-yl)-2-[(1S)-1-(2,5-dimethylphenyl)-3,4-dihydroisoquinolin-2(1H)-yl]-N-(2-fluorobenzyl)propanamide]",< 1000
5,"Cc1c(Cl)cccc1C1c2ccccc2CCN1CC(=O)N(Cc1ccccc1F)C1Cc2ccccc2C1 (stereo not drawn) [Compound 65, 2-[1-(3-chloro-2-methylphenyl)-3,4-dihydroisoquinolin-2(1H)-yl]-N-(indan-2-yl)-N-(2-fluorobenzyl)acetamide]",< 1000
6,"COc1ccccc1C1c2ccccc2CCN1CC(=O)N(Cc1ccccc1F)C1Cc2ccccc2C1 (stereo not drawn) [Compound 24, N-(indan-2-yl)-N-(2-fluorobenzyl)-2-[1-(2-methoxyphenyl)-3,4-dihydroisoquinolin-2(1H)-yl]acetamide]",< 1000
7,"Cc1ccccc1C1c2ccccc2CCN1CC(=O)N(Cc1ccccc1F)c1ccccc1 (stereo not drawn) [Compound 82, N-(2-fluorobenzyl)-2-[1-(2-methylphenyl)-3,4-dihydroisoquinolin-2(1H)-yl]-N-phenylacetamide]",< 1000
8,"COc1ccc2c(c1)CC(N(Cc1ccccc1F)C(=O)CN1CCc3ccccc3C1c1ccccc1Cl)C2 (stereo not drawn) [Compound 93, 2-[1-(2-chlorophenyl)-3,4-dihydroisoquinolin-2(1H)-yl]-N-(2-fluorobenzyl)-N-(5-methoxy-indan-2-yl)acetamide]",< 1000
9,"O=C(CN1CCc2ccccc2C1c1cccc2cccnc12)N(Cc1ccccc1F)C1Cc2ccccc2C1 (stereo not drawn) [Compound 62, N-(indan-2-yl)-N-(2-fluorobenzyl)-2-(1-quinolin-8-yl-3,4-dihydroisoquinolin-2(1H)-yl)acetamide]",< 1000
10,"O=C(CN1CCc2ccccc2[C@H]1c1ccccc1C(F)(F)F)N(Cc1ccccc1F)C1Cc2ccccc2C1 [Compound 41, N-(indan-2-yl)-N-(2-fluorobenzyl)-2-[(1S)-1-[2-(trifluoromethyl)phenyl]-3,4-dihydroisoquinolin-2(1H)-yl]acetamide]",< 1000
11,"CCC1(c2ccccc2C)c2ccccc2CCN1CC(=O)N(Cc1ccccc1F)C1Cc2ccccc2C1 (stereo not drawn) [Compound 16, N-(indan-2-yl)-2-[1-ethyl-1-(2-methylphenyl)-3,4-dihydroisoquinolin-2(1H)-yl]-N-(2-fluorobenzyl)acetamide]",< 1000
12,"Cc1ccc(F)c([C@H]2c3ccccc3CCN2[C@@H](C)C(=O)N(Cc2ccccc2F)C2Cc3ccccc3C2)c1 [Compound 86, (2S)-N-(indan-2-yl)-N-(2-fluorobenzyl)-2-[(1R)-1-(2-fluoro-5-methylphenyl)-3,4-dihydroisoquinolin-2(1H)-yl]propanamide]",< 1000
13,"O=C(CN1CCc2ccccc2C1c1c(F)cccc1Cl)N(Cc1ccccc1F)C1Cc2ccccc2C1 (stereo not drawn) [Compound 96, 2-[1-(2-chloro-6-fluorophenyl)-3,4-dihydroisoquinolin-2(1H)-yl]-N-(indan-2-yl)-N-(2-fluorobenzyl)acetamide]",< 1000
14,O=C(CN1CCc2ccccc2C12CCc1ccccc12)N(Cc1ccccc1F)C1Cc2ccccc2C1 (stereo not drawn) [Compound 45],< 1000
15,"COc1cccc(CN(C(=O)CN2CCc3ccccc3C2c2ccccc2C)C2Cc3ccccc3C2)c1 (stereo not drawn) [Compound 79, N-(indan-2-yl)-N-(3-methoxybenzyl)-2-[1-(2-methylphenyl)-3,4-dihydroisoquinolin-2(1H)-yl]acetamide]",< 1000
16,"C[C@@H](C(=O)N(Cc1ccccc1F)C1Cc2ccccc2C1)N1CCc2ccccc2[C@@H]1c1cccc2ccccc12 [Compound 63, (2S)-N-(indan-2-yl)-N-(2-fluorobenzyl)-2-[(1R)-1-(1-naphthyl)-3,4-dihydroisoquinolin-2(1H)-yl]propanamide]",< 1000

# The next lines start with the values.
row,Ki [nM],Structure (SMILES)
1,< 1000,"O=C(CN1CCc2ccccc2C1c1c(F)cccc1C(F)(F)F)N(Cc1ccccc1F)C1Cc2ccccc2C1 (stereo not drawn) [Compound 99, N-(indan-2-yl)-N-(2-fluorobenzyl)-2-[1-[2-fluoro-6-(trifluoromethyl)phenyl]-3,4-dihydroisoquinolin-2(1H)-yl]acetamide]"
2,< 1000,"C[C@@H](C(=O)N(Cc1cccc(O)c1)C1Cc2ccccc2C1)N1CCc2ccccc2[C@@H]1c1ccccc1Cl [Compound 114, (2S)-2-[(1R)-1-(2-chlorophenyl)-3,4-dihydroisoquinolin-2(1H)-yl]-N-(indan-2-yl)-N-(3-hydroxybenzyl)propanamide]"
3,< 1000,"C[C@@H](C(=O)N(CCc1c[nH]c2ccccc12)Cc1ccccc1F)N1CCc2ccccc2[C@@H]1c1cccc2ccccc12 [Compound 119, (2S)-N-(2-fluorobenzyl)-N-[2-(1H-indol-3-yl)ethyl]-2-[(1R)-1-(1-naphthyl)-3,4-dihydroisoquinolin-2(1H)-yl]propanamide]"
4,< 1000,"C[C@@H](C(=O)N(CCc1ccc(O)cc1)Cc1ccccc1F)N1CCc2ccccc2[C@@H]1c1cccc2ccccc12 [Compound 118, (2S)-N-(2-fluorobenzyl)-N-[2-(4-hydroxyphenyl)ethyl]-2-[(1R)-1-(1-naphthyl)-3,4-dihydroisoquinolin-2(1H)-yl]propanamide]"
5,< 1000,"C[C@@H](C(=O)N(Cc1cccc(OC(F)F)c1F)C1Cc2ccccc2C1)N1CCc2ccccc2[C@@H]1c1ccccc1Cl [Compound 120, (2S)-2-[(1R)-1-(2-chlorophenyl)-3,4-dihydroisoquinolin-2(1H)-yl]-N-[3-(difluoromethoxy)-2-fluorobenzyl]-N-(indan-2-yl)propanamide]"
6,< 1000,"C[C@@H](C(=O)N(Cc1cccc(C(=O)O)c1)C1Cc2ccccc2C1)N1CCc2ccccc2[C@@H]1c1ccccc1Cl [Compound 98, 3{[{(2S)-2-[(1R)-1-(2-chlorophenyl)-3,4-dihydroisoquinolin-2(1H)-yl]propanoyl}(indan-2-yl)amino]methyl}benzoic acid]"
7,< 1000,"COc1ncccc1CN(C(=O)[C@H](C)N1CCc2ccccc2[C@@H]1c1cccc2ccccc12)C1Cc2ccccc2C1 [Compound 121, (2S)-N-(indan-2-yl)-N-[(2-methoxypyridin-3-yl)methyl]-2-[(1R)-1-(1-naphthyl)-3,4-dihydroisoquinolin-2(1H)-yl]propanamide]"

# Same assay, conditions: differentiated U937 cells, unit inferred, read-out: Ca2+ (numeric value, C5a receptor mediated calcium mobilization)
row,Ki [nM],Structure (SMILES)
1,575,"CC1=C(C)C(c2ccccc2)N(CC(=O)N(Cc2ccccc2F)C2Cc3ccccc3C2)CC1 (stereo not drawn) [Compound 134, 2-(4,5-Dimethyl-6-phenyl-3,6-dihydro-2H-pyridin-1-yl)-N-(2-fluoro-benzyl)-N-indan-2-yl-acetamide]"
